Here are results for 1 compound from ChEMBL document CHEMBL4406850, “Review about the multi-target profile of resveratrol and its implication in the SGK1 inhibition” (Eur J Med Chem, 2019).

Activity calls are given as the source filed them. The rule behind the calls is not given here.

Test [1] deals with Huh-7. Kind of test: Induction of apoptosis in human HuH7 cells assessed as increase in late apoptotic cells at 100 uM incubated for 48 hrs by annexin V and 7-AAD staining based assay. It is filed as functional, cell-based.
The subject of test [2] is Huh-7. Kind of test: Induction of apoptosis in human HuH7 cells assessed as increase in early apoptotic cells at 100 uM incubated for 48 hrs by annexin V and 7-AAD staining based assay. Format: functional, cell-based.
The test system of test [3] is Huh-7. Kind of test: Induction of apoptosis in human HuH7 cells transfected with ShSGK1 assessed as early apoptosis at 100 uM incubated for 48 hrs by annexin V and 7-AAD staining based assay. Format: functional, cell-based.
Test [4] has as its system Huh-7. Kind of test: Antiproliferative activity against human HuH7 cells overexpressing EGFP assessed as reduction in cell viability at 100 uM incubated for 48 hrs by trypan blue dye based assay. It is filed as functional.
The test system of test [5] is Huh-7. Kind of test: Antiproliferative activity against human HuH7 cells overexpressing SGK1 assessed as reduction in cell viability at 100 uM incubated for 48 hrs by trypan blue dye based assay. It is filed as functional.
Test [6] concerns Huh-7. Put plainly: Induction of apoptosis in human HuH7 cells overexpressing SGK1 at 100 uM incubated for 48 hrs by annexin V and 7-AAD staining based assay. Format: functional, cell-based.
Test [7] has as its system Huh-7. Kind of test: Induction of apoptosis in human HuH7 cells transfected with ShSGK1 assessed as late apoptosis at 100 uM incubated for 48 hrs by annexin V and 7-AAD staining based assay. It is filed as functional, cell-based.
In test [8] the test system is Huh-7. Kind of test: Antiproliferative activity against human HuH7 cells assessed as reduction in cell viability at 100 uM incubated for 48 hrs by trypan blue dye based assay. It is filed as functional.
Test [9] concerns the target T1, Serine/threonine-protein kinase Sgk1 (Homo sapiens) (UniProt O00141).
T1 sequence (whole entry): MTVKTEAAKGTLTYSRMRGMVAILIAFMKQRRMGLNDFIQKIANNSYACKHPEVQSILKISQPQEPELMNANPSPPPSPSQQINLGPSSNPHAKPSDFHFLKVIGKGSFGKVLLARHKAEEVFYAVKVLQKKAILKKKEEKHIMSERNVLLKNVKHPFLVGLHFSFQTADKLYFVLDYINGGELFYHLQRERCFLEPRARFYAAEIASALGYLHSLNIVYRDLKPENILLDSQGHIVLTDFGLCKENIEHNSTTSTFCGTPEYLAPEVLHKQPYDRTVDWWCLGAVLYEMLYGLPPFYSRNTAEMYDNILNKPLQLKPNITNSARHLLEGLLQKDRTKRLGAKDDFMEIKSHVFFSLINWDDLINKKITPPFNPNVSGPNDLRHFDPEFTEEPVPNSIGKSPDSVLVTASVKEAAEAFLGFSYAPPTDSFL
Put plainly: Inhibition of SGK1 in human HuH7 cells assessed as reduction in insulin-induced MDM2 phosphorylation on Ser166 at 100 uM incubated for 6 hrs by Western blot analysis. Format: cell-based. (A western blot detects proteins with antibodies after separation by electrophoresis.)

For test [10], the system named is Huh-7. Put plainly: Induction of apoptosis in human HuH7 cells overexpressing EGFP at 100 uM incubated for 48 hrs by annexin V and 7-AAD staining based assay. Format: functional, cell-based.
Test [11] concerns the target T1, Serine/threonine-protein kinase Sgk1 (Homo sapiens). Kind of test: Inhibition of recombinant human N-terminal His-tagged SGK1 using (GRPRTSSFAEGKK) peptide as substrate incubated for 30 mins in presence of [32P] gamma ATP by scintillation counter method.
In test [12] the test system is Huh-7. Kind of test: Antiproliferative activity against human HuH7 cells transfected with ShSGK1 assessed as reduction in cell viability at 100 uM incubated for 48 hrs by trypan blue dye based assay. It is filed as functional.
Test [13] concerns the target T1, Serine/threonine-protein kinase Sgk1 (Homo sapiens). Put plainly: Inhibition of SGK1 in human HUH7 cells at 100 uM using peptide as substrate incubated for 6 hrs by scintillation counter method. Format: cell-based.
For test [14] the target is unchanged. Kind of test: Inhibition of insulin-induced SGK1 in human HUH7 cells at 100 uM using peptide as substrate incubated for 6 hrs by scintillation counter method. It is filed as cell-based.
Test [15] concerns Huh-7. Kind of test: Induction of apoptosis in human HuH7 cells assessed as increase in necrotic cells at 100 uM incubated for 48 hrs by annexin V and 7-AAD staining based assay. Format: functional, cell-based.
The target in test [16] is T1, Serine/threonine-protein kinase Sgk1 (Homo sapiens). Kind of test: Inhibition of recombinant human N-terminal His-tagged SGK1 at 50 uM using (GRPRTSSFAEGKK) peptide as substrate incubated for 30 mins in presence of [32P] gamma ATP by scintillation counter method.

For the compound `Oc1ccc(/C=C/c2cc(O)cc(O)c2)cc1`, the result in the test with Huh-7 [1], in the test on Huh-7 [2], in the test with Huh-7 [3], in the test on Huh-7 [4], with Huh-7 [7] and with Huh-7 [8] was Active. The result with Huh-7 [10], with Huh-7 [12] and in the test on Huh-7 [15] was Active. Further, the result with Huh-7 [5] and with Huh-7 [6] was inactive. For the same compound, the inhibition result in test [9] and in [14] was “Active” throughout. Further, the inhibition entry in test [11] was “Dose-dependent effect”; in test [16], 50%. In addition, the inhibition entry in [13] was “inactive”.

What is called inhibition is the relative decrease from the control value, in per cent.
